The values below come from ChEMBL document CHEMBL5291721, “A preclinical secondary pharmacology resource illuminates target-adverse drug reaction associations of marketed drugs” (Nat Commun, 2023).

Test [1] concerns the target 5-hydroxytryptamine receptor 2B (Homo sapiens, UniProt P41595). It counts as functional, cell-based.
Test [2] concerns the target 5-hydroxytryptamine receptor 2A (Homo sapiens, UniProt P28223). It counts as functional, cell-based.
A further test addresses T1, Glucocorticoid receptor (Homo sapiens, UniProt P04150).
T1 sequence (P04150 whole entry): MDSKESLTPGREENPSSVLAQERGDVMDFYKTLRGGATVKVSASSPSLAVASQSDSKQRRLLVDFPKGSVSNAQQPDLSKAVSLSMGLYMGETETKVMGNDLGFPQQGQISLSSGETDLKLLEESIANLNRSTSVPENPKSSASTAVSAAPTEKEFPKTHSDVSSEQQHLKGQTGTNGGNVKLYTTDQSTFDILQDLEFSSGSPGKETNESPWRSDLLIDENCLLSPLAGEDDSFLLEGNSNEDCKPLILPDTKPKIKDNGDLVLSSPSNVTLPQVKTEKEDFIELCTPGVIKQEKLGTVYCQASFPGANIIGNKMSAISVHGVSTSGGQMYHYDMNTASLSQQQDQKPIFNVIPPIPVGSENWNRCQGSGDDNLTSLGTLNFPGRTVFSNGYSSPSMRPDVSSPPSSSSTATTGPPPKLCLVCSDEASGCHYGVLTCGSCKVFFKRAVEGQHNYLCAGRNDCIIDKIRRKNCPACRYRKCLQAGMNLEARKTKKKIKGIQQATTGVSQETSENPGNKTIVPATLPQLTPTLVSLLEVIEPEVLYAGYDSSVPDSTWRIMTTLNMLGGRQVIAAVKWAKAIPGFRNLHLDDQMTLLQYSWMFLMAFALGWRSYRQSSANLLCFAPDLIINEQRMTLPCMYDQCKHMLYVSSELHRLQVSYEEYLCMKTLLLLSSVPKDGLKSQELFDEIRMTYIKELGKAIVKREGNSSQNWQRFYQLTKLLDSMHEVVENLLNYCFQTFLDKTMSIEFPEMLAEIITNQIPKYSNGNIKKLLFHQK

Test [3] addresses T2, Gastrin/cholecystokinin type B receptor (Homo sapiens, UniProt P32239).
T2 sequence (P32239 whole entry): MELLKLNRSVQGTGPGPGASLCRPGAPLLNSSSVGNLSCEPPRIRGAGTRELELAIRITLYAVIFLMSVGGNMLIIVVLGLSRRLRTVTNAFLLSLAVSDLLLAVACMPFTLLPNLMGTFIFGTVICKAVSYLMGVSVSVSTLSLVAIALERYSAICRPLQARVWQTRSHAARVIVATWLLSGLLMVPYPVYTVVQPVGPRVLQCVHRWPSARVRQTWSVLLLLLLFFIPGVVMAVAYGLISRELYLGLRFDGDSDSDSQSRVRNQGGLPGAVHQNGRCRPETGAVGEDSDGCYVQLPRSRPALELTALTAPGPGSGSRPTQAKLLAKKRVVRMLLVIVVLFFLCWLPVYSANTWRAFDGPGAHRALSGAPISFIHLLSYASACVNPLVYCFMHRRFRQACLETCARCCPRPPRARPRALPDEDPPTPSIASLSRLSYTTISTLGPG

In test [4] the target is T3, Alpha-2B adrenergic receptor (Homo sapiens, UniProt P18089).
T3 sequence (P18089 whole entry): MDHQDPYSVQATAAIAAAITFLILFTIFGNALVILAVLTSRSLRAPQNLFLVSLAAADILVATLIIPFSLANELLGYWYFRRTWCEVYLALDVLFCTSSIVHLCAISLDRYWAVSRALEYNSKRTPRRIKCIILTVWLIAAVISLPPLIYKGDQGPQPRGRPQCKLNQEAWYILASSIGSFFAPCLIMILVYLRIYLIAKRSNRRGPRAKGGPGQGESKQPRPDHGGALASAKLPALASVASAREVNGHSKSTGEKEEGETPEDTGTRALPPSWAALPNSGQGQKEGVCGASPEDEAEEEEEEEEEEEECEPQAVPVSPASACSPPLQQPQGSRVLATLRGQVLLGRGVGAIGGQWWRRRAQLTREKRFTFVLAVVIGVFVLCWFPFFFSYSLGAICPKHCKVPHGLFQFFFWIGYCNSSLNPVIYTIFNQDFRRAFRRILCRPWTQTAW

The next test addresses Histamine H3 receptor (Homo sapiens, UniProt Q9Y5N1).
The target in test [5] is cGMP-inhibited 3',5'-cyclic phosphodiesterase 3A (Homo sapiens, UniProt Q14432). The class given is functional.
The target in test [6] is T4, Alpha-2A adrenergic receptor (Homo sapiens, UniProt P08913).
T4 sequence (P08913 whole entry): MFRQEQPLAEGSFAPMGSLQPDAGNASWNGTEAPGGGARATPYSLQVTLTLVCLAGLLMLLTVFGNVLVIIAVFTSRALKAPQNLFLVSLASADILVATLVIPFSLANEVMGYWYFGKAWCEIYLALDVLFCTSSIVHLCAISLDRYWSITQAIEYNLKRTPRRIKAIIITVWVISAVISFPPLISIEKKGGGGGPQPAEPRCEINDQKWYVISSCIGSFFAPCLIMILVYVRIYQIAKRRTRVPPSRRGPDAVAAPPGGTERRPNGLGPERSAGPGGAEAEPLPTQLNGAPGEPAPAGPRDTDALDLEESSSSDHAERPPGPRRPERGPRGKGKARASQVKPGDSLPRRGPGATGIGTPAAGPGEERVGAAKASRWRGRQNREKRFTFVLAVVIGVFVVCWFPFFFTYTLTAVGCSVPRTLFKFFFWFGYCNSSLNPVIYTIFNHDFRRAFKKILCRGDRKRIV

Test [7] has as its target Sodium-dependent dopamine transporter (Homo sapiens, UniProt Q01959).
For test [8], the target named is T5, Alpha-1A adrenergic receptor (Homo sapiens, UniProt P35348).
T5 sequence (P35348 whole entry): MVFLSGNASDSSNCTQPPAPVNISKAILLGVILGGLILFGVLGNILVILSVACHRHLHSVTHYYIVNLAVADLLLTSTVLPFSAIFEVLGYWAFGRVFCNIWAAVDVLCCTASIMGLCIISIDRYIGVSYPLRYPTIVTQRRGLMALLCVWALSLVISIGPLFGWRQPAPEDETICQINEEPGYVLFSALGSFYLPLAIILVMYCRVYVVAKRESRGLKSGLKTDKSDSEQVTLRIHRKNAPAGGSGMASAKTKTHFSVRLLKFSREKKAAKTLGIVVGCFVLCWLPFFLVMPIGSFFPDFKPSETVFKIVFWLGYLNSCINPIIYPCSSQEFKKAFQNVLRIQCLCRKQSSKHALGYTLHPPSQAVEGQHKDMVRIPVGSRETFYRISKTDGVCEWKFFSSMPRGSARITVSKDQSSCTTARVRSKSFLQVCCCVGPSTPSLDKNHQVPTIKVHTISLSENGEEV
Also: assay procedure not described here.

Chain of 5-hydroxytryptamine receptor 2A (P28223 whole entry): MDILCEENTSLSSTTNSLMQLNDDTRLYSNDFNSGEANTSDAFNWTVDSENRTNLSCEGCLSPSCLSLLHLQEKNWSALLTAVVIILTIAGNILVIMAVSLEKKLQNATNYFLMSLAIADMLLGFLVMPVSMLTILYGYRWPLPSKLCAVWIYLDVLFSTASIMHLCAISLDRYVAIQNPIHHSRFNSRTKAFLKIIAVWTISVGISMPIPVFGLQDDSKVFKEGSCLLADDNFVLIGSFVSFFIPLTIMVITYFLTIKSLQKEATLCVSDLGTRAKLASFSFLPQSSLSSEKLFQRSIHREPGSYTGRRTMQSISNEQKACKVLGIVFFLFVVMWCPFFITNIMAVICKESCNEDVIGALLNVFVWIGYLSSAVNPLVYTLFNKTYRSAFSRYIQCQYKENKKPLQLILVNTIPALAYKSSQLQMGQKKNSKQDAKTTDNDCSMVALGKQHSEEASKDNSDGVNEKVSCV
Chain of Histamine H3 receptor (Q9Y5N1 whole entry): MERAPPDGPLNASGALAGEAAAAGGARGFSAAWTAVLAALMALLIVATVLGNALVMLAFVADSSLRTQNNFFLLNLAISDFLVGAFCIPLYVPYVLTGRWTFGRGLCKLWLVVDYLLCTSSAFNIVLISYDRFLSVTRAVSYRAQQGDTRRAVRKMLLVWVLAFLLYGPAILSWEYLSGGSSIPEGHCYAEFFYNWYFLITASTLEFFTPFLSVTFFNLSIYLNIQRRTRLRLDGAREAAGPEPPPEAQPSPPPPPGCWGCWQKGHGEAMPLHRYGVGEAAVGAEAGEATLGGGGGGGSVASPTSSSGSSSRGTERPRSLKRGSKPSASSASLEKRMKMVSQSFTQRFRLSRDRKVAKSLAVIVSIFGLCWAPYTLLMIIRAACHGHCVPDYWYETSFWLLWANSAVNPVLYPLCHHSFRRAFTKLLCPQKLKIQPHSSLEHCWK
Chain of cGMP-inhibited 3',5'-cyclic phosphodiesterase 3A (Q14432 whole entry): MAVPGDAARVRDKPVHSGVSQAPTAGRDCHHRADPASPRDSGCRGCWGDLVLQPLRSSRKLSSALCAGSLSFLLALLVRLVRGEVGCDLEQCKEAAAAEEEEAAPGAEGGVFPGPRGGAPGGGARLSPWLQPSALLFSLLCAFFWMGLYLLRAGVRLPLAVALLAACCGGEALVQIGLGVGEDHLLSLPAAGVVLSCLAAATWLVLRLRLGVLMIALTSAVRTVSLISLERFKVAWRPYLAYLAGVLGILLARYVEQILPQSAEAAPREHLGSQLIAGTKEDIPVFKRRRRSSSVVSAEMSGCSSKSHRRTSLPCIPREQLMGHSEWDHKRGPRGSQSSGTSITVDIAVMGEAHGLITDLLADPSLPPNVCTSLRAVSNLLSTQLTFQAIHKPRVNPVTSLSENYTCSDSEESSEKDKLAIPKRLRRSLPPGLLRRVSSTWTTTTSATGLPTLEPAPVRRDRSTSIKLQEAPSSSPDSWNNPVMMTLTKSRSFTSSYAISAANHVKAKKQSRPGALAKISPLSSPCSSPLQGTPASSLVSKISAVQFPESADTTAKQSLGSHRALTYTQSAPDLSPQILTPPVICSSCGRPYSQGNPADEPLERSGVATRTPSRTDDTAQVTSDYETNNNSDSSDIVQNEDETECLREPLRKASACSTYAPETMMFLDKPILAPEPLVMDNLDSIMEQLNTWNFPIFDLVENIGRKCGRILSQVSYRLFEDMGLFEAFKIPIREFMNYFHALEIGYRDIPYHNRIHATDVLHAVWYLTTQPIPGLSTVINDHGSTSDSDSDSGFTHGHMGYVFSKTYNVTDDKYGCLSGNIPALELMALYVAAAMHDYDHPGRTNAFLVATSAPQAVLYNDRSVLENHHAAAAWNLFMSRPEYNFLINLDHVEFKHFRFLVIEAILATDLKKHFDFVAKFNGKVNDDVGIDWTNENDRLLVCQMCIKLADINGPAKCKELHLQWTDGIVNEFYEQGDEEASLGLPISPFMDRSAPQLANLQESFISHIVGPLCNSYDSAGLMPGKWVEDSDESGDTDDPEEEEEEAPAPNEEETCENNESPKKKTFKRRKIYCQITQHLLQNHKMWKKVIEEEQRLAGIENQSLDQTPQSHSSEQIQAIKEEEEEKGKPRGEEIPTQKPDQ
Chain of Sodium-dependent dopamine transporter (Q01959 whole entry): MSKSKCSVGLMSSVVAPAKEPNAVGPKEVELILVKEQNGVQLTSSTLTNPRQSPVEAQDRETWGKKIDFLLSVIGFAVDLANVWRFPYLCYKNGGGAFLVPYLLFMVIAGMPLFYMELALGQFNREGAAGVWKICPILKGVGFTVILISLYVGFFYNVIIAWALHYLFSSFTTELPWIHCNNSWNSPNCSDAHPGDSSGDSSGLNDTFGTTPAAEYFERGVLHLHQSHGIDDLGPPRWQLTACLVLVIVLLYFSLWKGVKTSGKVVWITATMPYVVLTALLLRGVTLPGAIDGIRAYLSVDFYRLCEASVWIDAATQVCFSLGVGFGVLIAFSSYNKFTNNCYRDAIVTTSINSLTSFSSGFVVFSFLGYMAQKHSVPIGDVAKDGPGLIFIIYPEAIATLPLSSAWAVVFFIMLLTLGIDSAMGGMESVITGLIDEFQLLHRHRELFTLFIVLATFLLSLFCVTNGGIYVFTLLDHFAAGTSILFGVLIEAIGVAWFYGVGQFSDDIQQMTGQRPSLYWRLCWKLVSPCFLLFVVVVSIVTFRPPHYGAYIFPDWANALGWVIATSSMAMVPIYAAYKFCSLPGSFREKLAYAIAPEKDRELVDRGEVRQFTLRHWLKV
Chain of 5-hydroxytryptamine receptor 2B (P41595 whole entry): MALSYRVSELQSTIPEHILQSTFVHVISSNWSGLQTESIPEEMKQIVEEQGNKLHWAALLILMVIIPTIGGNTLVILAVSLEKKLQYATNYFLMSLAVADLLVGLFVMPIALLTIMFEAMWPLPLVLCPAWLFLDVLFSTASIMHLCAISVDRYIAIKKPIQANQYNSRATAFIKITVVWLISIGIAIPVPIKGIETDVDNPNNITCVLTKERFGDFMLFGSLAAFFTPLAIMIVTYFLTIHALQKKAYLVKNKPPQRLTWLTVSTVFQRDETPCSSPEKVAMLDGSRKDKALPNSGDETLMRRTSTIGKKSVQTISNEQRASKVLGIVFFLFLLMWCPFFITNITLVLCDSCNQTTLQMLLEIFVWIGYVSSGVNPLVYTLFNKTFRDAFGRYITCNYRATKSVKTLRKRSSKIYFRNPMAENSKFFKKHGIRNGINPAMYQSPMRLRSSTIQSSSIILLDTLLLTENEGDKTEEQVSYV

Consider `CCCCN1C[C@H](O)[C@@H](O)[C@H](O)[C@H]1CO`, for which the AC50 (in test [1]; in test [2]; on Glucocorticoid receptor; in test [3]; in [4]) was more than 30 µM throughout.
For the molecule `CN(C)CCC=C1c2ccccc2C(C)(C)c2ccccc21`, the AC50 in test [1] turned out to be 4.34 µM; in [2], 4.5 µM; in test [4] it was 11 µM.
On to `Nc1nc(NC2CC2)c2ncn([C@H]3C=C[C@@H](CO)C3)c2n1` [ABACAVIR], for which the AC50 (in test [2]; at Glucocorticoid receptor; in test [3]; in test [4]) was more than 30 µM each time.
Take `CC(=O)NCCCS(=O)(=O)O` [ACAMPROSATE]: the AC50 (in [1]; in test [2]; at Glucocorticoid receptor; in [3]; in [4]) was more than 30 µM in each case.
On to `COc1cc2nc(N(C)CCCNC(=O)C3CCCO3)nc(N)c2cc1OC` (configuration not stated) [ALFUZOSIN], for which the AC50 was more than 30 µM in test [1]; more than 30 µM in test [2]; more than 30 µM at Glucocorticoid receptor; more than 30 µM in test [3]; 8.9 µM in test [4].
For the molecule `C=CCc1ccccc1OCC(O)CNC(C)C` (configuration not stated) [ALPRENOLOL], the AC50 in test [1] is 16 µM; in test [2] it was more than 30 µM; on Histamine H3 receptor, more than 0.3 µM; in [5], more than 0.3 µM; in test [6] it was more than 0.3 µM; in test [3], more than 30 µM. For the same molecule, the AC50 in test [7] was more than 0.3 µM; in [4] it was more than 30 µM.
With `CC[C@H]1OC(=O)[C@H](C)[C@@H](O[C@H]2C[C@@](C)(OC)[C@@H](O)[C@H](C)O2)[C@H](C)[C@@H](O[C@@H]2O[C@H](C)C[C@H](N(C)C)[C@H]2O)[C@](C)(O)C[C@@H](C)CN(C)[C@H](C)[C@@H](O)[C@]1(C)O` [AZITHROMYCIN], the AC50 in test [1] was more than 10 µM; on Histamine H3 receptor, more than 30 µM; in test [5] it was more than 30 µM; in [6] it was more than 30 µM; in [3], more than 30 µM; in [7] it was more than 30 µM. For the same molecule, the AC50 in test [8] was more than 10 µM.
In the case of `O=C(Cc1ccc(-c2ccccc2)cc1)Nc1ccccn1` [DIFENPIRAMIDE], the AC50 in test [1] was more than 30 µM; in [2] it was more than 30 µM; at Histamine H3 receptor, more than 30 µM; in [5], more than 30 µM; in test [6], more than 30 µM; in [7] it was 0.58 µM. The molecule also registered a concentration at half-maximal activity (AC50) in test [4] of more than 30 µM.
In the case of `O=C(OCC(O)CO)c1ccccc1Nc1ccnc2cc(Cl)ccc12` (configuration not stated) [GLAFENINE], the AC50 (in test [1]; in test [2]; on Histamine H3 receptor; in test [5]; in [6]; in test [7]) was more than 30 µM in each case. This molecule also showed an AC50 in [4] of more than 30 µM.
As to `C[N+]1(C)CCC(OC(=O)C(O)(c2ccccc2)C2CCCC2)C1` (configuration not stated) [GLYCOPYRRONIUM BROMIDE], the AC50 (in test [5]; at Glucocorticoid receptor; in test [3]) was more than 30 µM in each case.
On to `C[C@]12CCC(=O)C=C1CC[C@@H]1[C@@H]2[C@@H](O)C[C@@]2(C)[C@H]1CC[C@]2(O)C(=O)CO` [HYDROCORTISONE], for which the AC50 in test [1] is more than 10 µM; in test [3], more than 30 µM; in test [8], more than 10 µM.
As for `CCC(C)n1ncn(-c2ccc(N3CCN(c4ccc(OCC5COC(Cn6cncn6)(c6ccc(Cl)cc6Cl)O5)cc4)CC3)cc2)c1=O` (configuration not stated) [ITRACONAZOLE], the AC50 is more than 30 µM in test [1], more than 30 µM in test [3] and more than 10 µM in [8].
For the molecule `c1ccc([C@H]2CN3CCSC3=N2)cc1` [LEVAMISOLE], the AC50 in test [1] was more than 30 µM; in [8], more than 10 µM.
Turning to `CNC1Cc2ccccc2N(C)c2ccccc21` (configuration not stated) [METAPRAMINE], the AC50 in test [2] was more than 30 µM; in test [4], 29 µM.
Turning to `Cc1nc([N+](=O)[O-])cn1-c1ccc([N+](=O)[O-])cc1` [NITREFAZOLE], the AC50 (in test [1]; in [2]; at Glucocorticoid receptor; in test [3]) was more than 30 µM throughout.
For `CC[C@H]1[C@@H](O)[C@@H]2[C@H](CC[C@]3(C)[C@@H]([C@H](C)CCC(=O)O)CC[C@@H]23)[C@@]2(C)CC[C@@H](O)C[C@@H]12` [OBETICHOLIC ACID], the AC50 (in test [2]; at Histamine H3 receptor; in [5]; in test [6]; on Glucocorticoid receptor; in test [3]) was more than 30 µM throughout. The AC50 in test [7] and in test [4] was more than 30 µM in each case.
For the molecule `COc1ccc(CC(C)(C)NC[C@H](O)c2cc(O)cc3c2OCC(=O)N3)cc1` [OLODATEROL], the AC50 in test [1] is 6.65 µM; in test [2], more than 30 µM; in test [4], more than 30 µM.
On to `c1cnc(N2CCN(Cc3ccc4c(c3)OCO4)CC2)nc1` [PIRIBEDIL], for which the AC50 in test [1] was 2.3 µM; in test [2], more than 30 µM.
Take `COCCCN1CCC(NC(=O)c2cc(Cl)c(N)c3c2OCC3)CC1` [PRUCALOPRIDE]: the AC50 (in test [1]; in test [2]; at Histamine H3 receptor; in test [5]; in test [6]; in [7]) was more than 30 µM throughout. Also, the AC50 in test [4] is more than 30 µM.
Turning to `O=C(O[C@H]1C[C@H]2CC[C@@H](C1)[N+]21CCCC1)C(O)(c1ccccc1)c1ccccc1` [TROSPIUM], the AC50 in test [1], in test [2], in test [3] and in test [4] was more than 30 µM in each case.

By AC50 is commonly meant the concentration giving half of the maximal activity seen. A high value points to activity only at high concentration.
